Reference: patent US20210100832A1, “INJECTABLE COMPOSITION FOR THE TREATMENT OF MUSCULOSKELETAL DISORDERS AND METHODS OF USE THEREOF” (Patchor Ltd., priority 2019, published 2021)

Experiments:
[1] = test system: wistar rats with knee osteoarthritis (ACLT with MMx); assay: Von Frey filament mechanical nociceptive threshold test in rat knee OA; assay type: in vivo
Protocol: As described in Example 3, OA was induced on one leg of wistar rats while the contralateral knee served as self-control. Thereafter, 14 rats were divided into two experimental groups. 7 were treated by injection of HA to the knee, as a positive control, and 7 were injected with GR. Injection volume was 150 microliters.
The experimental outcome was assessed using the Von Frey filament method for detection of mechanical nociceptive threshold test.

[2] = molecular target: galectin-3 (Homo sapiens, UniProt P17931); settings: reference [8]; cited from earlier work
[3] = test system: wistar rats with knee osteoarthritis (ACLT with MMx); assay: Weight bearing (incapacitance tester) in rat knee OA induced by ACLT with medial meniscectomy; assay type: in vivo; settings: 150 microliters into the knee; 20 days post treatment (day 34); *p=0.0012, **p=0.0458; FIG. 2
Protocol: Induction of knee osteoarthritis was performed by an anterior cruciate ligament transaction (ACLT) with medial meniscectomy (MMx) on one leg of wistar rats while the contralateral knee served as self-control. After the procedure the animals were divided into three experimental groups of 7 animals per group. Control group was treated by injection of 150 microliters of 1% HA into the knee. Experimental groups were treated by injection of 150 microliters of either GR or GR-HA.
Formulation for dosing of control group was taken from commercial HA-1% viscosupplementation injection (Arthrease 1% sodium hyaluronate Lot R10008G, produced by Bio-Technology General). GR+HA was prepared by Patchor's standard procedures, as described in International Patent Publication No. WO 2009/150651 A1, of mixing HA with GM or with GR. All injections volume was 150 microliters. The positive control HA group was treated immediately post surgery and again at day 14 post surgery, and the HA−CM−GM was treated only once at day 14 post surgery. The experimental outcome was assessed by measuring weight bearing on the OA leg using an incapacitance tester.

Chain of galectin-3 (P17931 whole entry, species assumed): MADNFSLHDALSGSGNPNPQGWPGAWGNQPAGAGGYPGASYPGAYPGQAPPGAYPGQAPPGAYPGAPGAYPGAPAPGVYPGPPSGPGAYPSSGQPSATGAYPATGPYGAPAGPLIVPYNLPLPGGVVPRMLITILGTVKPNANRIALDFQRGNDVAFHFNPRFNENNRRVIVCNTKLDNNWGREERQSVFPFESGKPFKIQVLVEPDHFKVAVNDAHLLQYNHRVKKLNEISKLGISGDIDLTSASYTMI

**Q.** With Galactoarabino-Rhamnogalacturonan [GR] as the substance, how does the “pain response compared to control HA (Von Frey)” value ([1]; 150 microliters into OA knee, FIG. 3) read?
**A.** significantly reduced pain response

**Q.** And the “nociceptive threshold of OA leg versus control HA” value ([1]; 1 day post treatment, p=0.02)?
**A.** significant reduction in nociceptive threshold

**Q.** And the “nociceptive threshold of OA leg versus control HA” value ([1]; 19 days post treatment, p=0.007)?
**A.** significant reduction in nociceptive threshold

**Q.** What about the “nociceptive reaction in the healthy legs, GR versus HA group” value ([1]; healthy contralateral legs, data not shown) of the same substance?
**A.** No difference in nociceptive reaction

**Q.** And the “inhibition of galectin-3” value [2]?
**A.** potent inhibitors of galectin-3

**Q.** And the “weight bearing ability on the operated OA leg compared to HA group” value [3]?
**A.** significant increase in weight bearing ability

**Q.** With Galactomannan [GM] as the substance, how does the “inhibition of galectin-3” value [2] read?
**A.** potent inhibitors of galectin-3
